In PMC3828125 (Biochemistry, 2011):
Read-outs that look alike come from different tables or passages of the source. Marks after values point to notes of the source that are not given here.

Key:
CYP3A4 [1] = molecular target: T1, CYP3A4 (Homo sapiens, UniProt P08684, S18F); conditions: read-out: Km of 10,11-epoxide formation; ref [26], [89]; cited from earlier work
CYP3A4 [2] = molecular target: T1, CYP3A4
CYP3A4 [3] = molecular target: CYP3A4 (Homo sapiens, UniProt P08684); conditions: for Km at 2 min: human, fit to eq 1
CYP3A4 [4] = molecular target: T1, CYP3A4; remark: listed apart in the source
CYP3A4 [5] = molecular target: T1, CYP3A4; experiment: Absorbance difference titrations of recombinant CYP3A4 with MDZ and CBZ
CYP3A4 [6] = molecular target: T1, CYP3A4; conditions: read-out: experimental KM for 1′-OH-MDZ formation; ref [23], [86]–[88]; cited from earlier work
[7] = molecular target: recombinant human cytochrome P450 3A4 (CYP3A4 NF14 construct) (human) (UniProt P08684); experiment: SEC
[8] = 260 μM Carbamazepine alone, 1 μM CYP3A4
[9] = 260 μM Carbamazepine alone, 1 μM CYP3A4, chemical equivalence (eq 7)
[10] = 260 μM Carbamazepine alone, 1 μM CYP3A4, eq 6
[11] = 260 μM Midazolam alone, 1 μM CYP3A4
[12] = 260 μM Midazolam alone, 1 μM CYP3A4, eq 6
[13] = 260 μM Midazolam with 260 μM Carbamazepine bound simultaneously, 1 μM CYP3A4

NC(=O)N1c2ccccc2C=Cc2ccccc21 [CBZ, carbamazepine]
Km (CYP3A4 [1]): 119 to 442 µM
%HS of CYP3A4 heme (CYP3A4 [2]; 260 μM CBZ, 1 μM CYP3A4 (33% HS without ligands)): 34%
effect of CBZ on 1′-OH-MDZ and 4-OH-MDZ formation (CYP3A4 [3]; low [MDZ], 240 μM CBZ): competitively inhibit
effect of CBZ on 1′-OH-MDZ formation (CYP3A4 [3]; saturating CBZ (240 μM), near saturating MDZ): only partially inhibited
RFe2+-CO, proton peak aa′ (CYP3A4 [4]; [8]): 1.67 ± 0.11 s⁻¹
RFe2+-CO, proton peak bb′ (CYP3A4 [4]; [8]): 1.54 ± 0.09 s⁻¹
RFe2+-CO, proton peak cc′ (CYP3A4 [4]; [8]): 1.59 ± 0.10 s⁻¹
RFe2+-CO, proton peak dd′ (CYP3A4 [4]; [8]): 1.47 ± 0.09 s⁻¹
RFe2+-CO, proton peak ee′ (CYP3A4 [4]; [8]): 1.52 ± 0.09 s⁻¹
RFe3+, proton peak aa′ (CYP3A4 [4]; [8]): 2.44 ± 0.24 s⁻¹
RFe3+, proton peak bb′ (CYP3A4 [4]; [8]): 2.56 ± 0.33 s⁻¹
RFe3+, proton peak cc′ (CYP3A4 [4]; [8]): 2.38 ± 0.23 s⁻¹
RFe3+, proton peak dd′ (CYP3A4 [4]; [8]): 2.50 ± 0.25 s⁻¹
RFe3+, proton peak ee′ (CYP3A4 [4]; [8]): 2.22 ± 0.20 s⁻¹
RP, proton peak aa′ (CYP3A4 [4]; [8]): 0.77 ± 0.26 s⁻¹
RP, proton peak bb′ (CYP3A4 [4]; [8]): 1.03 ± 0.34 s⁻¹
RP, proton peak cc′ (CYP3A4 [4]; [8]): 0.79 ± 0.25 s⁻¹
RP, proton peak dd′ (CYP3A4 [4]; [8]): 1.03 ± 0.26 s⁻¹
RP, proton peak ee′ (CYP3A4 [4]; [8]): 0.71 ± 0.22 s⁻¹
rmin, proton peak aa′ (CYP3A4 [4]; [9]): 7.02±0.40 ^b Å
rmin, proton peak bb′ (CYP3A4 [4]; [9]): 6.69±0.38 ^b Å
rmin, proton peak cc′ (CYP3A4 [4]; [9]): 6.98±0.37 ^b Å
rmin, proton peak dd′ (CYP3A4 [4]; [9]): 6.69±0.29 ^b Å
rmin, proton peak ee′ (CYP3A4 [4]; [9]): 7.12±0.37 ^b Å
rapp, proton peak bb′ (CYP3A4 [4]; [10]): 7.51±0.42 Å
rapp, proton peak cc′ (CYP3A4 [4]; [10]): 7.84±0.41 Å
rapp, proton peak dd′ (CYP3A4 [4]; [10]): 7.51±0.33 Å
rapp, proton peak ee′ (CYP3A4 [4]; [10]): 7.99±0.41 Å
calculated proton-heme distances on average (CYP3A4 [4]; CBZ alone): 7–8 Å
variation in the proton RPs (CYP3A4 [4]; CBZ alone): 30%
RP of CBZ protons (CYP3A4 [4]; in the presence of MDZ): < 0.04
Amax of the CBZ titration curve (CYP3A4 [5]; CBZ alone, fit to eq 3): 0.0049 ± 0.0007 µM⁻¹ cm⁻¹

Cc1ncc2n1-c1ccc(Cl)cc1C(c1ccccc1F)=NC2 [MDZ, midazolam]
Km (CYP3A4 [6]): 5 to 11 µM
%HS of CYP3A4 heme (CYP3A4 [2]; 260 μM MDZ and 260 μM CBZ together, 1 μM CYP3A4): 55%
%HS of CYP3A4 heme (CYP3A4 [2]; 260 μM MDZ, 1 μM CYP3A4 (33% HS without ligands)): 70%
[MDZ] at which velocity of 1′-OH-MDZ formation reaches a maximum (CYP3A4 [3]; absence of CBZ): 25 µM
Km at 2 min (CYP3A4 [3]; pH 7.4, Km of 1′-OH-MDZ formation, presence of 240 μM CBZ): 12.5 ± 2.1 µM
Km at 2 min (CYP3A4 [3]; pH 7.4, Km of 4-OH-MDZ formation, absence of CBZ): 47.5 ± 6.8 µM
Km at 2 min (CYP3A4 [3]; pH 7.4, Km of 4-OH-MDZ formation, presence of 240 μM CBZ): 57.7 ± 2.1 µM
RFe2+-CO, proton peak 1′ (CYP3A4 [4]; [11]): 1.53 ± 0.04 s⁻¹
RFe2+-CO, proton peak 3 (CYP3A4 [4]; [11]): 1.45 ± 0.18 s⁻¹
RFe2+-CO, proton peak 3F (CYP3A4 [4]; [11]): 1.46 ± 0.20 s⁻¹
RFe2+-CO, proton peak 4F (CYP3A4 [4]; [11]): 1.91 ± 0.07 s⁻¹
RFe2+-CO, proton peak 5F (CYP3A4 [4]; [11]): 1.72 ± 0.10 s⁻¹
RFe2+-CO, proton peak 6F (CYP3A4 [4]; [11]): 1.83 ± 0.11 s⁻¹
RFe2+-CO, proton peak 7 (CYP3A4 [4]; [11]): 1.67 ± 0.09 s⁻¹
RFe2+-CO, proton peak 9 (CYP3A4 [4]; [11]): 1.65 ± 0.12 s⁻¹
RFe2+-CO, proton peak 10 (CYP3A4 [4]; [11]): 1.81 ± 0.11 s⁻¹
RFe3+, proton peak 1′ (CYP3A4 [4]; [11]): 2.18 ± 0.02 s⁻¹
RFe3+, proton peak 3 (CYP3A4 [4]; [11]): 1.88 ± 0.04 s⁻¹
RFe3+, proton peak 3F (CYP3A4 [4]; [11]): 1.60 ± 0.07 s⁻¹
RFe3+, proton peak 4F (CYP3A4 [4]; [11]): 1.85 ± 0.04 s⁻¹
RFe3+, proton peak 5F (CYP3A4 [4]; [11]): 2.17 ± 0.06 s⁻¹
RFe3+, proton peak 6F (CYP3A4 [4]; [11]): 1.88 ± 0.05 s⁻¹
RFe3+, proton peak 7 (CYP3A4 [4]; [11]): 1.81 ± 0.05 s⁻¹
RFe3+, proton peak 9 (CYP3A4 [4]; [11]): 2.97 ± 0.17 s⁻¹
RFe3+, proton peak 10 (CYP3A4 [4]; [11]): 2.85 ± 0.06 s⁻¹
RP, proton peak 1′ (CYP3A4 [4]; [11]): 0.65 ± 0.05 s⁻¹
RP, proton peak 3 (CYP3A4 [4]; [11]): 0.43 ± 0.18 s⁻¹
RP, proton peak 3F (CYP3A4 [4]; [11]): 0.14 ± 0.21 s⁻¹
RP, proton peak 4F (CYP3A4 [4]; [11]): -0.06 ± 0.08 s⁻¹
RP, proton peak 5F (CYP3A4 [4]; [11]): 0.45 ± 0.11 s⁻¹
RP, proton peak 6F (CYP3A4 [4]; [11]): 0.05 ± 0.12 s⁻¹
RP, proton peak 7 (CYP3A4 [4]; [11]): 0.14 ± 0.10 s⁻¹
RP, proton peak 9 (CYP3A4 [4]; [11]): 1.31 ± 0.20 s⁻¹
RP, proton peak 10 (CYP3A4 [4]; [11]): 1.03 ± 0.12 s⁻¹
rmin, proton peak 4F (CYP3A4 [4]; 260 μM Midazolam alone, 1 μM CYP3A4, calculated using the highest RP): 17.02 ^c Å
rmin, proton peak 1′ (CYP3A4 [4]; 260 μM Midazolam alone, 1 μM CYP3A4, chemical equivalence (eq 7)): 7.62±0.18 ^b Å
rapp, proton peak 1′ (CYP3A4 [4]; [12]): 9.15±0.22 Å
rapp, proton peak 3 (CYP3A4 [4]; [12]): 9.79±0.71 Å
rapp, proton peak 3F (CYP3A4 [4]; [12]): 11.84±2.95 Å
rapp, proton peak 5F (CYP3A4 [4]; [12]): 9.75±0.46 Å
rapp, proton peak 6F (CYP3A4 [4]; [12]): 14.13±6.01 Å
rapp, proton peak 7 (CYP3A4 [4]; [12]): 11.83±1.50 Å
rapp, proton peak 9 (CYP3A4 [4]; [12]): 8.14±0.27 Å
rapp, proton peak 10 (CYP3A4 [4]; [12]): 8.47±0.24 Å
RFe2+-CO, proton peak 1′ (CYP3A4 [4]; [13]): 1.57 ± 0.04 s⁻¹
RFe2+-CO, proton peak 3 (CYP3A4 [4]; [13]): 1.44 ± 0.12 s⁻¹
RFe2+-CO, proton peak 3F (CYP3A4 [4]; [13]): 1.54 ± 0.18 s⁻¹
RFe2+-CO, proton peak 4F (CYP3A4 [4]; [13]): ~ 1 sec^−1
RFe2+-CO, proton peak 5F (CYP3A4 [4]; [13]): 1.16 ± 0.19 s⁻¹
RFe2+-CO, proton peak 6F (CYP3A4 [4]; [13]): 1.76 ± 0.13 s⁻¹
RFe2+-CO, proton peak 7 (CYP3A4 [4]; [13]): 1.41 ± 0.06 s⁻¹
RFe2+-CO, proton peak 9 (CYP3A4 [4]; [13]): 1.26 ± 0.07 s⁻¹
RFe2+-CO, proton peak 10 (CYP3A4 [4]; [13]): 1.76 ± 0.09 s⁻¹
RFe3+, proton peak 1′ (CYP3A4 [4]; [13]): 2.13 ± 0.04 s⁻¹
RFe3+, proton peak 3 (CYP3A4 [4]; [13]): 1.82 ± 0.06 s⁻¹
RFe3+, proton peak 3F (CYP3A4 [4]; [13]): 2.04 ± 0.05 s⁻¹
RFe3+, proton peak 4F (CYP3A4 [4]; [13]): 1.08 ± 0.05 s⁻¹
RFe3+, proton peak 5F (CYP3A4 [4]; [13]): 1.05 ± 0.04 s⁻¹
RFe3+, proton peak 6F (CYP3A4 [4]; [13]): 1.69 ± 0.24 s⁻¹
RFe3+, proton peak 7 (CYP3A4 [4]; [13]): 1.70 ± 0.05 s⁻¹
RFe3+, proton peak 9 (CYP3A4 [4]; [13]): 2.37 ± 0.07 s⁻¹
RFe3+, proton peak 10 (CYP3A4 [4]; [13]): 2.69 ± 0.06 s⁻¹
RP, proton peak 1′ (CYP3A4 [4]; [13]): 0.56 ± 0.06 s⁻¹
RP, proton peak 3 (CYP3A4 [4]; [13]): 0.38 ± 0.13 s⁻¹
RP, proton peak 3F (CYP3A4 [4]; [13]): 0.50 ± 0.19 s⁻¹
RP, proton peak 4F (CYP3A4 [4]; [13]): 0.07 ± 0.12 s⁻¹
RP, proton peak 5F (CYP3A4 [4]; [13]): -0.11 ± 0.19 s⁻¹
RP, proton peak 6F (CYP3A4 [4]; [13]): -0.07 ± 0.27 s⁻¹
RP, proton peak 7 (CYP3A4 [4]; [13]): 0.29 ± 0.08 s⁻¹
RP, proton peak 9 (CYP3A4 [4]; [13]): 1.11 ± 0.10 s⁻¹
RP, proton peak 10 (CYP3A4 [4]; [13]): 0.93 ± 0.11 s⁻¹
average RP of the fluorophenyl protons (CYP3A4 [4]; MDZ alone): 0.15 s⁻¹
average distance of chlorophenyl group from heme (CYP3A4 [4]; MDZ alone, calculated from RPs): ~ 10 Å
average distance of fluorophenyl group from heme (CYP3A4 [4]; MDZ alone, calculated from RPs): ~ 13 Å
distance of 1′-CH3 from heme (CYP3A4 [4]; MDZ alone, depending on the orientation): 7.6–9.2 Å
average RP of the fluorophenyl protons (CYP3A4 [4]; MDZ in the presence of CBZ): 0.1 s⁻¹
Δε at 100 μM MDZ in the titration curve (CYP3A4 [5]; 120 μM CBZ): ~ 0.015 μM^−1 cm^−1
Amax of the MDZ titration curve (CYP3A4 [5]; absence of CBZ): 0.0342 ± 0.0083 µM⁻¹ cm⁻¹
Kd (CYP3A4 [5]; human, pH 7.4): 70.6 ± 29 µM
Δε at 100 μM MDZ in the titration curve (CYP3A4 [5]; no CBZ): ~ 0.025 μM^−1 cm^−1

recombinant human cytochrome P450 3A4 (CYP3A4 NF14 construct) (from UniProt P08684 1-503) (enzyme)
stoichiometry N [7]: 4
